Experiment [1] relates to cellular pERK in MIA-PaCa-2 (KRAS-G12C) cell-line. Description: Cell based pERK assay (HTRF), MIA-PaCa-2. The note with it: MIA-PaCa-2 (KRAS-G12C) cells, 2 hours incubation, read-out: MIAPaCa2 pERK EC50. As to the method:
(§1) Compounds were tested in a 384-well assay format for their ability to inhibit cellular pERK in Kuramochi (WT KRAS), MIA-PaCa-2 (KRAS-G12C), ASPC-1 (KRAS G12D), and NCI-H441 (KRAS-G12V) cell-lines. Compounds were serially diluted (1:3) in DMSO. On day −1, 80 uL of cells were plated per well in the 384 well tissue-culture plates (Greiner: Cat #781080) to seed 5000 cells per wells of AsPC-1 or 7500 cells of MIA-PaCa-2, NCI-H441, and Kuramochi cell lines in RPMI (Corning: Cat #10-040-CM) with 10% fetal bovine serum (FBS) (HyClone: Cat #SH30071-03) and 1× penicillin-streptomycin-glutamate (PSG) (Corning: Cat #30-009-CI) for […] and Kuramochi cell lines and DMEM (Corning: Cat #15-018-CM) with […] and 1× PSG for MKA-PaCa-2 cell line. The plates were then incubated overnight at 37° C. and 5% CO2. On day 0, 400 nL of compound/well was added into the cell plates and mixed 5 times by pipetting using a Beckmann Biomek FX. The cell plates were then incubated for 2 hours at 37° C. and 5% CO2. HTRF Advanced Phospho-ERK1/2 ([…]) Detection Kits (PerkinElmer: Cat #64AERPEG) were used to prepare the lysis and detection solution according to manufacturer protocol. Following the 2 hour incubation, 70 μL of medium was aspirated from the plates and 10 uL of lysis and detection solution was added to the plates using a Biotek EL406 washer and dispenser. Plates were sealed and stored overnight at room temperature. HTRF ratio (665 nm/615 nm) was read by Envision multimode reader (PerkinElmer) the next day. The TR-FRET ratios were normalized to a positive (saturating concentration of known inhibitor) and negative (DMSO) control and plotted against the log of compound concentration. IC50 values were defined as the compound concentration that causes a […] in normalized signal and were calculated using a sigmoidal dose-response model to generate curve fits.

For experiment [2], the system named is cellular pERK in ASPC-1 (KRAS G12D) cell-line. Nature of the experiment: Cell based pERK assay (HTRF), ASPC-1. The note with it: ASPC-1 (KRAS G12D) cells, 2 hours incubation. As to the method:
as §1

Experiment [3] concerns cellular pERK in NCI-H441 (KRAS-G12V) cell-line. Nature of the experiment: Cell based pERK assay (HTRF), NCI-H441. The conditions noted are these: NCI-H441 (KRAS-G12V) cells, 2 hours incubation. As to the method:
as §1
(In general: TR-FRET usually uses a lanthanide donor and a delayed reading to cut background.)

Experiment [4] has as its system cellular pERK in Kuramochi (WT KRAS) cell-line. Description: Cell based pERK assay (HTRF), Kuramochi. The note with it: Kuramochi (WT KRAS) cells, 2 hours incubation. As to the method: as §1

Like-named read-outs stand apart in the source and are kept apart here.

A word on the EC50: it is the concentration needed to bring the measured effect to its halfway point. Consider `C#Cc1c(F)ccc2cc(O)cc(-c3nc4c5c(nc(OC[C@@]67CCCN6C[C@H](F)C7)nc5c3F)N3CCCOC[C@@H]3CC4)c12` [Example 6-1, 5-ethynyl-6-fluoro-4-((S)-1-fluoro-12-(((2R,7aS)-2-fluorotetrahydro-1H-pyrrolizin-7a(5H)-yl)methoxy)-4,5,5a,6,9,10-hexahydro-8H-7-oxa-3,10a,11,13-tetraazanaphtho[1,8-ab]heptalen-2-yl)naphthalen-2-ol], for which the half-maximal effective concentration (EC50) in experiment [1] (Homo sapiens) worked out at 0.11 nM; in experiment [2] (Homo sapiens, ASPC1) it was 1.27 nM; in experiment [3] (Homo sapiens), 0.42 nM; in experiment [4], 1.35 nM.

Turning to `C#Cc1c(F)ccc2cc(O)cc(-c3nc4c5c(nc(OC[C@@]67CCCN6C[C@H](F)C7)nc5c3F)N3CCC(O)CC[C@@H]3CC4)c12` (stereo partly shown) [Example 6-29], the half-maximal effective concentration (EC50) was 23.8 nM in experiment [1] (Homo sapiens); 741 nM in experiment [2] (Homo sapiens, ASPC1); 452 nM in experiment [3] (Homo sapiens); 46.3 nM in experiment [4].

`Oc1cc(-c2nc3c4c(nc(OC[C@@]56CCCN5C[C@H](F)C6)nc4c2F)N2CCCOC[C@@H]2CC3)c2c(Cl)cccc2c1` [Example 19-1, 5-chloro-4-((S)-1-fluoro-12-(((2R,7aS)-2-fluorotetrahydro-1H-pyrrolizin-7a(5H)-yl)methoxy)-4,5,5a,6,9,10-hexahydro-8H-7-oxa-3,10a,11,13-tetraazanaphtho[1,8-ab]heptalen-2-yl)naphthalen-2-ol]: the EC50 in experiment [1] (Homo sapiens) was over 1000 nM; in experiment [2] (Homo sapiens, ASPC1) it was over 1000 nM; in experiment [3] (Homo sapiens), over 1000 nM; in experiment [4], 582 nM.

Regarding `C#Cc1c(F)ccc2cc(O)cc(-c3nc4c5c(nc(OC[C@@]67CCCN6C[C@H](F)C7)nc5c3F)N3CC(F)(F)COC[C@@H]3CC4)c12` (single isomer, unassigned) [Example 17-2], the EC50 in experiment [1] (Homo sapiens) was determined as 1.3 nM; in experiment [2] (Homo sapiens, ASPC1), 10.8 nM; in experiment [3] (Homo sapiens) it was 5.1 nM; in experiment [4] it was 2.29 nM.

Regarding `C#Cc1c(F)c(F)cc2cc(N)cc(-c3nc4c5c(nc(OC[C@@]67CCCN6C/C(=C\F)C7)nc5c3F)N3CCCOC[C@@H]3CC4)c12` [Example 23-2], the EC50 in experiment [1] (Homo sapiens) was 0.87 nM; in experiment [2] (Homo sapiens, ASPC1) it was 5.33 nM; in experiment [3] (Homo sapiens) it was 1.67 nM; in experiment [4], 1.37 nM.

Turning to `CCc1c(F)ccc2cc(O)cc(-c3nc4c5c(nc(OC[C@@]67CCCN6C[C@H](F)C7)nc5c3F)N3CCCC[C@H]3CC4)c12` [Example 2-1, 5-ethyl-6-fluoro-4-((S)-1-fluoro-11-(((2R,7aS)-2-fluorotetrahydro-1H-pyrrolizin-7a(5H)-yl)methoxy)-5,5a,6,7,8,9-hexahydro-4H-3,9a,10,12-tetraazabenzo[4,5]cyclohepta[1,2,3-de]naphthalen-2-yl)naphthalen-2-ol], the 50% effective concentration (EC50) in experiment [1] amounted to 54.9 nM; in experiment [2] (read-out: AsPC1 pERK EC50) it was 114 nM; in experiment [3], 74.6 nM; in experiment [4] it was 24.7 nM.

As to `C#Cc1c(F)ccc2cc(O)cc(-c3nc4c5c(nc(OC[C@@]67CCCN6C[C@H](F)C7)nc5c3F)N3CCCOC[C@H]3CC4)c12` [Example 6-5], the 50% effective concentration (EC50) in experiment [1] (Homo sapiens) was determined as 13.6 nM; in experiment [2] (Homo sapiens, ASPC1), 85.8 nM; in experiment [3] (Homo sapiens), 32.2 nM; in experiment [4], 44.9 nM.

Consider `C#Cc1c(F)ccc2cc(O)cc(-c3nc4c5c(nc(OC[C@@]67CCCN6[C@H](COC(=O)N(C)C)CC7)nc5c3F)N3CCCOC[C@@H]3CC4)c12` [Example 6-25], for which the EC50 in experiment [1] (Homo sapiens) worked out at 3.87 nM; in experiment [2] (Homo sapiens, ASPC1), 9.84 nM; in experiment [3] (Homo sapiens), 4.57 nM; in experiment [4], 17.9 nM.

For `C#Cc1c(F)ccc2cc(N)cc(-c3nc4c5c(nc(OCC67CCCN6CCC7)nc5c3F)N3CCCOC[C@@H]3CC4)c12` [Example 7-3], the EC50 in experiment [1] (Homo sapiens) came out at 9.14 nM; in experiment [2] (Homo sapiens, ASPC1) it was 118 nM; in experiment [3] (Homo sapiens), 20 nM; in experiment [4], 6.12 nM.

With `C#Cc1c(F)ccc2cc(O)cc(-c3nc4c5c(nc(OC[C@@]67CCCN6C[C@H](F)C7)nc5c3F)N3CCCOC[C@@H]3C=C4C)c12` [Example 6-18], the half-maximal effective concentration (EC50) stood at 0.28 nM in experiment [1] (Homo sapiens); 0.61 nM in experiment [2] (Homo sapiens, ASPC1); 0.56 nM in experiment [3] (Homo sapiens); 1.99 nM in experiment [4].

Source of the values: patent publication US20240383922A1, “KRAS Modulating Compounds” (Gilead Sciences, Inc., priority 2023, published 2024).
